According to ChEMBL document CHEMBL1201862, “PubChem BioAssay data set” (2004):
Activity calls are given as the source filed them.

Assays:
[1] = target: T1, Protein RecA (Mycobacterium tuberculosis, UniProt P9WHJ3); assay: Fluorescence Cell-Free Homogeneous Dose Retest to Identify Inhibitors of RecA-Intein Splicing Activity. [Related pubchem assays (depositor defined):AID2097, AID2223, AID489010, AID492950]; assay type: functional
T1 sequence (P9WHJ3 whole entry): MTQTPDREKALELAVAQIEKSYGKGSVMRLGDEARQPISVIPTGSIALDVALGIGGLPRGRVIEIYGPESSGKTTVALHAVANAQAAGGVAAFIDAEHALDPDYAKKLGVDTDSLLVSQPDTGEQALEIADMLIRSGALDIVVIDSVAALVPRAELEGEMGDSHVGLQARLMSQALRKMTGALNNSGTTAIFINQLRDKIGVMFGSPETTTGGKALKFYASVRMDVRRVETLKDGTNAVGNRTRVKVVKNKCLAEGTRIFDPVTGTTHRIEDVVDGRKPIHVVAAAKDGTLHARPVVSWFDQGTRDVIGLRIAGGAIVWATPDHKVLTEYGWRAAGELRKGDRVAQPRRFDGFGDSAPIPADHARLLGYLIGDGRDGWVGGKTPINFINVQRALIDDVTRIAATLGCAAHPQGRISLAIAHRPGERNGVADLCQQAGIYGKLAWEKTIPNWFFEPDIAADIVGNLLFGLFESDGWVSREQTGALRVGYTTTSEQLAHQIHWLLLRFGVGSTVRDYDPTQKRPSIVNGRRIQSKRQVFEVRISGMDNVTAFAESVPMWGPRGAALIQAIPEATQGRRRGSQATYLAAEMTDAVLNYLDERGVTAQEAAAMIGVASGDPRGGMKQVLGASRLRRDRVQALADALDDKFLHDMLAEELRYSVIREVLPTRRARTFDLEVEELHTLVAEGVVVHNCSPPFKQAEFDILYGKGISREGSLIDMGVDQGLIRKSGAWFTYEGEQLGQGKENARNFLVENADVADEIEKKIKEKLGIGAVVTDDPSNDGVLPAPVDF

[2] = target: T2, Replicative DNA helicase DnaB (Mycobacterium tuberculosis, UniProt P9WMR3); assay: DnaB intein splicing inhibitors, dose response, biochemical, cell-free fluorescence (AID 449749); assay type: functional
T2 sequence (P9WMR3 whole entry): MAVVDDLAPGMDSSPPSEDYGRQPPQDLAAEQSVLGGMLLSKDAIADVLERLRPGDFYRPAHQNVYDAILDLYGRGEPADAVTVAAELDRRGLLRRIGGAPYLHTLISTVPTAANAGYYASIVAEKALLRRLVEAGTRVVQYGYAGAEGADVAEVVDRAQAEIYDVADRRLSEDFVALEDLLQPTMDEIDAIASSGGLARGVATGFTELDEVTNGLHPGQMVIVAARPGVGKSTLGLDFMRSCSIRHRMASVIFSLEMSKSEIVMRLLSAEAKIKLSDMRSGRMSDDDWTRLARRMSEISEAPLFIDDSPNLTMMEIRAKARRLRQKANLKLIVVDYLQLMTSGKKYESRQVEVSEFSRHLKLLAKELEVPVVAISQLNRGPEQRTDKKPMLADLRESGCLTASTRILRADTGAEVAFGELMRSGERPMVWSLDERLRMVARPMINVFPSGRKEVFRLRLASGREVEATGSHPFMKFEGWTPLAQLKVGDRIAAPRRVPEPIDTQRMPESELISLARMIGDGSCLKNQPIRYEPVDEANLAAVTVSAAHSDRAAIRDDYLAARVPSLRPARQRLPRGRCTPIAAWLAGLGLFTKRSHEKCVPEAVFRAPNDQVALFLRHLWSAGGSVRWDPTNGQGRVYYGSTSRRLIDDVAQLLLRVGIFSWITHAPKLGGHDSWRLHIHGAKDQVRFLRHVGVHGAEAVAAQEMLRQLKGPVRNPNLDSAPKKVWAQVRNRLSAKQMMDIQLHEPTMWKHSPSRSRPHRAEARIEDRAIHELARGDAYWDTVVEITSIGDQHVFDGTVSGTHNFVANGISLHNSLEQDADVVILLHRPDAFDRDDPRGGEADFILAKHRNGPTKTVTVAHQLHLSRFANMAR

[3] = target: T3, Hexokinase HKDC1 (Homo sapiens, UniProt Q2TB90); assay: HKDC1 hexokinase inhibitors, dose response, biochemical, W721R variant (AID 504729); assay type: functional
T3 sequence (Q2TB90 whole entry): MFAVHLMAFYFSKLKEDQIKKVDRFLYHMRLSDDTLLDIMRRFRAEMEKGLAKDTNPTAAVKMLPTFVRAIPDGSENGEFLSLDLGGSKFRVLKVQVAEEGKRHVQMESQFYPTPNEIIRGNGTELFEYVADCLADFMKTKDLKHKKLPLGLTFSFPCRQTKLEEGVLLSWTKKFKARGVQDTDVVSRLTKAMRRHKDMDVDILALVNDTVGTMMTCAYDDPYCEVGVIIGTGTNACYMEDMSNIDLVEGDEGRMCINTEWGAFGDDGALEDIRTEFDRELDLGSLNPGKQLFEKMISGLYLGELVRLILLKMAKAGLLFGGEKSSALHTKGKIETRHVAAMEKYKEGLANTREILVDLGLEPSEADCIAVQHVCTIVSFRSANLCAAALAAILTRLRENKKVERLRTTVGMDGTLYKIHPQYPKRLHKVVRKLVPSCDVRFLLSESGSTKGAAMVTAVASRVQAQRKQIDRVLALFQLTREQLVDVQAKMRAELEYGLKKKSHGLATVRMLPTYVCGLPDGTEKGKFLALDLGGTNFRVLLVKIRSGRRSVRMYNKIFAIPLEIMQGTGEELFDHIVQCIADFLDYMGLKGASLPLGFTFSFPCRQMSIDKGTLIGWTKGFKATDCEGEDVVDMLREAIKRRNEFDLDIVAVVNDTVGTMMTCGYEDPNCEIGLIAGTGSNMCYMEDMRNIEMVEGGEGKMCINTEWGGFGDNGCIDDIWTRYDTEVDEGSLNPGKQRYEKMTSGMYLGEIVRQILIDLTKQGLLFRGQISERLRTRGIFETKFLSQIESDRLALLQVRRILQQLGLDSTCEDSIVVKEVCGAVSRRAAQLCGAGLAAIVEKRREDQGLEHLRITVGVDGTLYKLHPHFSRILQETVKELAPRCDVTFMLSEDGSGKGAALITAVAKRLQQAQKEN

[4] = target: T4, Low molecular weight phosphotyrosine protein phosphatase (Homo sapiens, UniProt P24666); assay type: functional; settings: read-out: IC50_Mean;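 also: Dose-response confirmation assay measuring inhibition of LMPTP enzyme activity by fluorescence intensity read-out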
T4 sequence (P24666 whole entry): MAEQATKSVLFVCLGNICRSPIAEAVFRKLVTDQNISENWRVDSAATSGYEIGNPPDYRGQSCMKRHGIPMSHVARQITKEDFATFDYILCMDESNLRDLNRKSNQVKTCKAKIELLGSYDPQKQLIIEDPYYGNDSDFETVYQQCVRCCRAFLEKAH

[5] = tested on: HEK293; assay: NOD2 signaling inhibitors in MDP-stimulated cells, cell-based, uHTS, luminescence (AID 2001); assay type: functional; settings: Homo sapiens
[6] = tested on: HEK293; assay: cells; assay type: functional, cell-based; settings: Homo sapiens
[7] = tested on: HEK293; assay: cells; assay type: functional, cell-based; settings: Homo sapiens; remark: listed apart in the source
[8] = tested on: HEK293; assay: NOD1 signaling inhibitors, primary screen, cell-based, luminescence, uHTS (AID 1578); assay type: functional; settings: Homo sapiens
[9] = tested on: HEK293; assay: cells; assay type: functional, cell-based; settings: Homo sapiens; remark: listed apart in the source
[10] = target: Nucleotide-binding oligomerization domain-containing protein 2 (Homo sapiens, UniProt Q9HC29); assay: NOD2 signaling inhibitors, cell-based, luminescence, uHTS, HEK293 (AID 1566); assay type: functional
[11] = target: Genome polyprotein (dengue virus type 2, UniProt P29990); assay: Dengue-2 NS5 methyltransferase inhibitors, primary screen, biochemical, confirmation dose response (AID 588689); assay type: functional
[12] = Luminescence Cell-Based Dose Retest to Confirm Inhibitors of Cancer Stem Cells. [Related pubchem assays (depositor defined):AID2717, AID2721]; assay type: functional, Homo sapiens; settings: Homo sapiens
[13] = tested on: Vero; assay: Vero cell cytotoxicity, cytotoxicity control for flavivirus capping enzyme inhibitors (AID 588742); assay type: functional; settings: Chlorocebus sabaeus

Nucleotide-binding oligomerization domain-containing protein 2, sequence (Q9HC29 whole entry, the tested form may be a part): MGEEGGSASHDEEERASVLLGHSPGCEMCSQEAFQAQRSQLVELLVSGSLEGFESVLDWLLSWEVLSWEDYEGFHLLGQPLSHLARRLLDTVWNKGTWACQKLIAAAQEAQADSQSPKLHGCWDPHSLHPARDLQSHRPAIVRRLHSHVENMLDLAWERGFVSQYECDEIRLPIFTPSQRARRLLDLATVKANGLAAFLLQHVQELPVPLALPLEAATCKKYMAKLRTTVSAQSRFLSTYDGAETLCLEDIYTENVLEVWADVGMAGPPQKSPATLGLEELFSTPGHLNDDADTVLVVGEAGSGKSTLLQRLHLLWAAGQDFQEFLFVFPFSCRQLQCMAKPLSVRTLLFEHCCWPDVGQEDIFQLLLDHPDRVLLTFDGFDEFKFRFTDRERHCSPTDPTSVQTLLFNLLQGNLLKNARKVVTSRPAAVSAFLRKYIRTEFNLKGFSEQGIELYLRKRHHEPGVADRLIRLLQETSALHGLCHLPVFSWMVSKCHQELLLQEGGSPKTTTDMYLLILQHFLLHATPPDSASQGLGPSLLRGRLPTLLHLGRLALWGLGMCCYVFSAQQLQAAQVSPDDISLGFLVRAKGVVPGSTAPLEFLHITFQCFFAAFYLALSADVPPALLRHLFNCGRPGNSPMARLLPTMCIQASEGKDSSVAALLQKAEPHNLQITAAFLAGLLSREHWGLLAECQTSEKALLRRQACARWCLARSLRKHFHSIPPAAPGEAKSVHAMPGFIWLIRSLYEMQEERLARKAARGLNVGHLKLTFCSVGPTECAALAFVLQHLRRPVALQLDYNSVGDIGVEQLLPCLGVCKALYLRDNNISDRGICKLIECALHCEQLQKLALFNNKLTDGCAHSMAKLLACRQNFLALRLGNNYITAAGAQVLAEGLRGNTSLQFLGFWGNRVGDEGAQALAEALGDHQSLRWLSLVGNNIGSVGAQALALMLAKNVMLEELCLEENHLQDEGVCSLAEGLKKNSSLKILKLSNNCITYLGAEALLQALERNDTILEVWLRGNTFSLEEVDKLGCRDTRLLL
Genome polyprotein, sequence (P29990 2492-3391 limits assumed): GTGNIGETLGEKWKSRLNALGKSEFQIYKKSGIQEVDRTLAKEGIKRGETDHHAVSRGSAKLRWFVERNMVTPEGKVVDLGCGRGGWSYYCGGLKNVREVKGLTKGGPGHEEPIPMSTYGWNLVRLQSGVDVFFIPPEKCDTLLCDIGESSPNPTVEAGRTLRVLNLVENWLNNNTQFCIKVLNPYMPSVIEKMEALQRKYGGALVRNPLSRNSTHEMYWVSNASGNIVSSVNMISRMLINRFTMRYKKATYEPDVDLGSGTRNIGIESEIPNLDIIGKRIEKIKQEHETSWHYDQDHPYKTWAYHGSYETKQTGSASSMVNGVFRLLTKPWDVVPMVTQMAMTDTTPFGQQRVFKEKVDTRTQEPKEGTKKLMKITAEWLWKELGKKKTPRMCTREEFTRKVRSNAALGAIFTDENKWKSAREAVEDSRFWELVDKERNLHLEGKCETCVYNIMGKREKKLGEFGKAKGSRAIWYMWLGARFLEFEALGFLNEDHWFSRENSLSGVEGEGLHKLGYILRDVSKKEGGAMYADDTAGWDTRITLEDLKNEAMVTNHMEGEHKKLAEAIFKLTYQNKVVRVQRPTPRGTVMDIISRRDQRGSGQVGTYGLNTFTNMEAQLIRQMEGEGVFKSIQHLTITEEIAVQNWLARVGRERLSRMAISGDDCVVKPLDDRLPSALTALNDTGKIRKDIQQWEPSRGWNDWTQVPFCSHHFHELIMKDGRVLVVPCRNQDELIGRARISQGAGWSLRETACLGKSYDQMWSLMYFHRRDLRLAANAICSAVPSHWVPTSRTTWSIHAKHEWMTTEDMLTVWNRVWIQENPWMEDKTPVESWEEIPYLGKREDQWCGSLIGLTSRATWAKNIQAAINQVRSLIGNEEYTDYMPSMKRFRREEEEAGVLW

For Cc1ccc(S(=O)(=O)Nc2c(O)ccc3ccccc23)cc1, the EC50 [1] was 0.939 µM (active), the AC50 [2] was 8.03 µM (active) and the IC50 [3] was 16.1 µM (active).

For CCOC(=O)CSc1nc2ccc(C)cc2n2cnnc12, the IC50 [3] was 9.55 µM (active).

With CCn1cc(C(=O)O)c(=O)c2cc(F)c(N3CCN(C(=S)NC(=O)c4cccc(C)c4)CC3)cc21 the IC50 [4] was 2.74 µM (active).

With Cc1nc(SCCC(=O)O)c2cc(-c3ccccc3)sc2n1 the IC50 [5] was > 20 µM (inactive), the IC50 [6] was > 20 µM (inactive) and the IC50 [7] was > 20 µM (inactive). For the same compound, the EC50 [8] was > 20 µM (inactive), the IC50 [9] was 4.5 µM (active) and the EC50 [10] was > 20 µM (inactive).

For O=C(Nc1ccccc1-c1nc2ccccc2s1)C1=COCCO1, the IC50 [4] was 11.7 µM (active).

For Cc1ccc(S(=O)(=O)Nc2ccccc2-c2ccccc2NS(=O)(=O)c2ccc(C)cc2)cc1, the IC50 [5] was 10 µM (inactive), the IC50 [11] was 54.8 µM (active) and the IC50 [6] was > 20 µM (inactive). The AC50 [12] was 6.86 µM (active), the CC50 [13] was > 40 µM (active) and the IC50 [7] was > 20 µM (inactive). The EC50 [8] was 4.99 µM (active), the IC50 [9] was 11.8 µM (active) and the EC50 [10] was 11.5 µM (active).

In the case of CCn1cc(C(=O)O)c(=O)c2cc(F)c(N3CCN(C(=S)NC(=O)c4ccc(Br)cc4)CC3)cc21, the IC50 [4] is reported as 3.17 µM (active).

With NC(=O)c1c(NC(=O)C(=O)N2CCOCC2)sc2c1CCCC2 the IC50 [5] was > 20 µM (inactive), the IC50 [6] was > 20 µM (inactive) and the IC50 [7] was > 20 µM (inactive). The EC50 [8] was > 20 µM (inactive), the IC50 [9] was > 20 µM (inactive) and the EC50 [10] was > 20 µM (inactive).
